From patent US10618918B2, “Substituted boronic acids as antimicrobials” (priority 2015, dated 2020)
Read-outs that look alike come from different tables or passages of the source.

How the values were obtained:
KP1004 KPC-2 [1] = experiment: Biapenem potentiation (MPC@1), strain KP1004 KPC-2; assay type: cell-based; conditions: minimum BLI concentration inhibiting growth with biapenem 1 μg/mL; tested up to 40 μg/mL
Procedure: (§1) Biapenem was present in the test medium at 1 μg/mL. […] Table 3 summarizes the BLI potency of biapenem potentiation (MPC@1) for two strains overexpressing class A (KPC) and class D (OXA-48) carbapenemases. Biapenem MIC for each strain is also shown.

KP1086 OXA-48 = experiment: Biapenem potentiation (MPC@1), strain KP1086 OXA-48; assay type: cell-based; conditions: minimum BLI concentration inhibiting growth with biapenem 1 μg/mL; tested up to 40 μg/mL
Procedure: as §1

AB1053 OXA-72 = experiment: Meropenem potentiation (MPC@8), strain AB1053 OXA-72; assay type: cell-based, Acinetobacter baumannii; conditions: minimum BLI concentration inhibiting growth with meropenem 8 μg/mL; tested up to 20 μg/mL
AB1054 OXA-23 = experiment: Meropenem potentiation (MPC@8), strain AB1054 OXA-23; assay type: cell-based, Acinetobacter baumannii; conditions: minimum BLI concentration inhibiting growth with meropenem 8 μg/mL; tested up to 20 μg/mL
[2] = biological target: T1, purified class A, C and D enzymes (β-lactamases) (Acinetobacter baumannii, UniProt Q9L4P2); experiment: biochemical; assay type: biochemical; conditions: purified OXA-23; nitrocefin (NCF) as reporter substrate
T1 construct: rows headed: Ki (OXA-23, NCF), uM; other: purified OXA-23; nitrocefin (NCF) as reporter substrate
T1 sequence (Q9L4P2 whole entry): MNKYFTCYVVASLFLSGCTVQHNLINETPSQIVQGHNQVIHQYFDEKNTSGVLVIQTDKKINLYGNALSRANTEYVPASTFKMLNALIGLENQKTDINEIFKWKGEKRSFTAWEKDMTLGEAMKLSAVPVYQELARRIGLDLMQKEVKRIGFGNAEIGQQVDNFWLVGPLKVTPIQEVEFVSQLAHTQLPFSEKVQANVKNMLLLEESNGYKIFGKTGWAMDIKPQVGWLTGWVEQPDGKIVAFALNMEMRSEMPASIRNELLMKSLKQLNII

[3] = biological target: purified class A, C and D enzymes (β-lactamases) (Enterobacter cloacae, UniProt P05364); experiment: biochemical; assay type: biochemical
Sequence of purified class A, C and D enzymes (β-lactamases) (Enterobacter cloacae, UniProt P05364) (P05364 21-381): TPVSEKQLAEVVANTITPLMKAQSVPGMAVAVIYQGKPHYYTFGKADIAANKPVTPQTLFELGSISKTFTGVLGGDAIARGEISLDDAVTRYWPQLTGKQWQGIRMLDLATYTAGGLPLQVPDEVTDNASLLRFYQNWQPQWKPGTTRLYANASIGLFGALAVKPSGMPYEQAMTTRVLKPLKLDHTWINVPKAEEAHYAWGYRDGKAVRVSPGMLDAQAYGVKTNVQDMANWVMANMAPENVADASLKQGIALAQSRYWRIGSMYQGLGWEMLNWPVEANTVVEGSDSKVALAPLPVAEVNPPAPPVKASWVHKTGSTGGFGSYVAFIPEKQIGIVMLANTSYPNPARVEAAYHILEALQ

[4] = biological target: purified class A, C and D enzymes (β-lactamases) (Escherichia coli, UniProt Q9L5C7); experiment: biochemical; assay type: biochemical; conditions: purified CTX-M-14; nitrocefin (NCF) as reporter substrate
Sequence of purified class A, C and D enzymes (β-lactamases) (Escherichia coli, UniProt Q9L5C7) (Q9L5C7 entry or part of it): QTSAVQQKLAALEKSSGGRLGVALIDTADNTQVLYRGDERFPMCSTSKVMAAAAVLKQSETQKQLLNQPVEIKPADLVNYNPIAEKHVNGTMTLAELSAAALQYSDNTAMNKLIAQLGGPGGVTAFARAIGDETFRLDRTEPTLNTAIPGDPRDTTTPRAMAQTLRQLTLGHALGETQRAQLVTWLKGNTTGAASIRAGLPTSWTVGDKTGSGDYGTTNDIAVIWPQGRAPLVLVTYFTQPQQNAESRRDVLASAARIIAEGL

[5] = biological target: purified class A, C and D enzymes (β-lactamases) (Klebsiella pneumoniae, UniProt Q6XEC0); experiment: biochemical; assay type: biochemical; conditions: purified OXA-48; nitrocefin (NCF) as reporter substrate
[6] = biological target: purified class A, C and D enzymes (β-lactamases) (Klebsiella pneumoniae, UniProt Q9F663); experiment: biochemical; assay type: biochemical; conditions: purified KPC-2; nitrocefin (NCF) as reporter substrate
[7] = biological target: T2, purified class A, C and D enzymes (β-lactamases) (Pseudomonas aeruginosa, UniProt P24735); experiment: biochemical; assay type: biochemical
T2 construct: rows headed: Ki (Pa-AmpC, NCF), uM; other: purified Pa-AmpC; nitrocefin (NCF) as reporter substrate
T2 sequence (P24735 whole entry): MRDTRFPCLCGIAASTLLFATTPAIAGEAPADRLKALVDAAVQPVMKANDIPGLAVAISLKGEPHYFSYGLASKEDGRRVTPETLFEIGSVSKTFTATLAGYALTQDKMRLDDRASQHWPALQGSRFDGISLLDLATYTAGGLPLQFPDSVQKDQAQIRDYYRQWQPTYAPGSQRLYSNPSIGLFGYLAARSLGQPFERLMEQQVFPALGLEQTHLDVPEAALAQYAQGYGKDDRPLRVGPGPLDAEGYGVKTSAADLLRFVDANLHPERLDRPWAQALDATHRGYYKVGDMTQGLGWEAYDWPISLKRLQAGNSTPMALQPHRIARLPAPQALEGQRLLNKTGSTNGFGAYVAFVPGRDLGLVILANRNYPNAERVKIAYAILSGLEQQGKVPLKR

ECL1002 = experiment: Aztreonam potentiation (MPC@4), strain ECL1002; conditions: minimum BLI concentration inhibiting growth with aztreonam 4 μg/mL; tested up to 40 μg/mL
ec308 SHV-5 = experiment: Aztreonam potentiation (MPC@4), strain ec308 SHV-5; conditions: minimum BLI concentration inhibiting growth with aztreonam 4 μg/mL; tested up to 40 μg/mL
ec302 TEM-10 = experiment: Aztreonam potentiation (MPC@4), strain ec302 TEM-10; conditions: minimum BLI concentration inhibiting growth with aztreonam 4 μg/mL; tested up to 40 μg/mL
KP1004 KPC-2 [8] = experiment: Aztreonam potentiation (MPC@4), strain KP1004 KPC-2; conditions: minimum BLI concentration inhibiting growth with aztreonam 4 μg/mL; tested up to 40 μg/mL
EC1010 CMY-6 = experiment: Aztreonam potentiation (MPC@4), strain EC1010 CMY-6; conditions: minimum BLI concentration inhibiting growth with aztreonam 4 μg/mL; tested up to 40 μg/mL
KP1010 SHV-12 = experiment: Aztreonam potentiation (MPC@4), strain KP1010 SHV-12; conditions: minimum BLI concentration inhibiting growth with aztreonam 4 μg/mL; tested up to 40 μg/mL
KP1009 CTX-M-15 = experiment: Aztreonam potentiation (MPC@4), strain KP1009 CTX-M-15; conditions: minimum BLI concentration inhibiting growth with aztreonam 4 μg/mL; tested up to 40 μg/mL
KP1005 CTX-M-14 = experiment: Tigemonam potentiation (MPC@4), strain KP1005 CTX-M-14; conditions: minimum BLI concentration inhibiting growth with tigemonam 4 μg/mL; tested up to 40 μg/mL

With `O=C([O-])c1c(OCC#CCN2CCC2)ccc2c1O[B-](O)(O)CC2.[Na+].[Na+]` [Compound 62, Disodium; 8-[4-(azetidin-1-yl)but-2-ynoxy]-4,4-dihydroxy-5-oxa-4-boranuidabicyclo[4.4.0]deca-1(6),7,9-triene-7-carboxylate] the “BPM MPC1 KP1004 KPC-2” value (KP1004 KPC-2 [1]) was “X (X = MPC@1 ≤ 5 μg/mL)”, the “BPM MPC1 OXA-48 KP1086” value (KP1086 OXA-48) was “X (X = MPC@1 ≤ 5 μg/mL)” and the “MPM MPC8 AB1053 OXA-72” value (AB1053 OXA-72) was “X (X = MPC@1 ≤ 5 μg/mL)”. The “MPM MPC8 AB1054 OXA-23” value (AB1054 OXA-23) was “X (X = MPC@1 ≤ 5 μg/mL)”, the Ki [2] was less than 0.1 µM and the “Ki (P99, NCF), uM” value [3] was “X (key: X = Ki ≤ 0.1 μM; Y = 0.1 μM < Ki ≤ 1 μM; Z = Ki > 1 μM)”. The “Ki (CTX-M-14, NCF), uM” value [4] was “X (X = Ki ≤ 0.1 μM)”, the “Ki (OXA-48, NCF), uM” value [5] was “X (X = Ki ≤ 0.1 μM)” and the “Ki (KPC-2, NCF), uM” value [6] was “X (X = Ki ≤ 0.1 μM)”. The Ki [7] was less than 0.1 µM, the “AZT MPC4 ECL1002” value (ECL1002) was “X (X = MPC@4 ≤ 5 μg/mL)” and the “AZT MPC4 SHV-5 ec308” value (ec308 SHV-5) was “X (X = MPC@4 ≤ 5 μg/mL)”. For the same molecule, the “AZT MPC4 TEM-10 ec302” value (ec302 TEM-10) was “X (X = MPC@4 ≤ 5 μg/mL)”, the “AZT MPC4 KPC-2 KP1004” value (KP1004 KPC-2 [8]) was “X (X = MPC@4 ≤ 5 μg/mL)” and the “AZT MPC4 CMY-6 EC1010” value (EC1010 CMY-6) was “X (X = MPC@4 ≤ 5 μg/mL)”. For the same molecule, the “AZT MPC4 SHV-12 KP1010” value (KP1010 SHV-12) was “X (X = MPC@4 ≤ 5 μg/mL)”, the “AZT MPC4 CTX-M-15 KP1009” value (KP1009 CTX-M-15) was “X (X = MPC@4 ≤ 5 μg/mL)” and the “TIG MPC4 CTX-M-14 KP1005” value (KP1005 CTX-M-14) was “Y (Y = 5 μg/mL < MPC@4 ≤ 20 μg/mL)”.

With `COc1c(Cl)cc2c(c1C(=O)O)OB(O)CC2` [Compound 41, 6-Chloro-2-hydroxy-7-methoxy-3,4-dihydro-1,2-benzoxaborinine-8-carboxylic acid] the “BPM MPC1 KP1004 KPC-2” value (KP1004 KPC-2 [1]) was “X (X = MPC@1 ≤ 5 μg/mL)”, the “BPM MPC1 OXA-48 KP1086” value (KP1086 OXA-48) was “X (X = MPC@1 ≤ 5 μg/mL)” and the “MPM MPC8 AB1053 OXA-72” value (AB1053 OXA-72) was “X (X = MPC@1 ≤ 5 μg/mL)”. The “MPM MPC8 AB1054 OXA-23” value (AB1054 OXA-23) was “X (X = MPC@1 ≤ 5 μg/mL)”, the Ki [2] was less than 0.1 µM and the “Ki (P99, NCF), uM” value ([3]; purified P99, nitrocefin (NCF) as reporter substrate) was “X (X = Ki ≤ 0.1 μM)”. The “Ki (CTX-M-14, NCF), uM” value [4] was “X (X = Ki ≤ 0.1 μM)”, the “Ki (OXA-48, NCF), uM” value [5] was “X (X = Ki ≤ 0.1 μM)” and the “Ki (KPC-2, NCF), uM” value [6] was “X (X = Ki ≤ 0.1 μM)”. For the same molecule, the Ki ([7]; purified Pa-AmpC, nitrocefin (NCF) as reporter substrate, read-out: Ki (Pa-AmpC, NCF)) was less than 0.1 µM, the “AZT MPC4 ECL1002” value (ECL1002) was “X (X = MPC@4 ≤ 5 μg/mL)” and the “AZT MPC4 SHV-5 ec308” value (ec308 SHV-5) was “X (X = MPC@4 ≤ 5 μg/mL)”. For the same molecule, the “AZT MPC4 TEM-10 ec302” value (ec302 TEM-10) was “X (X = MPC@4 ≤ 5 μg/mL)”, the “AZT MPC4 KPC-2 KP1004” value (KP1004 KPC-2 [8]) was “X (X = MPC@4 ≤ 5 μg/mL)” and the “AZT MPC4 CMY-6 EC1010” value (EC1010 CMY-6) was “X (X = MPC@4 ≤ 5 μg/mL)”. The “AZT MPC4 SHV-12 KP1010” value (KP1010 SHV-12) was “X (X = MPC@4 ≤ 5 μg/mL)”, the “AZT MPC4 CTX-M-15 KP1009” value (KP1009 CTX-M-15) was “X (X = MPC@4 ≤ 5 μg/mL)” and the “TIG MPC4 CTX-M-14 KP1005” value (KP1005 CTX-M-14) was “Y (Y = 5 μg/mL < MPC@4 ≤ 20 μg/mL)”.

For `CN(C)CCOc1ccc2c(c1C(=O)[O-])O[B-](O)(O)CC2.[Na+].[Na+]` [Compound 48, Disodium; 8-[2-(dimethylamino)ethoxy]-4,4-dihydroxy-5-oxa-4-boranuidabicyclo[4.4.0]deca-1(6),7,9-triene-7-carboxylate], the “BPM MPC1 KP1004 KPC-2” value (KP1004 KPC-2 [1]) was “X (X = MPC@1 ≤ 5 μg/mL)”, the “BPM MPC1 OXA-48 KP1086” value (KP1086 OXA-48) was “X (X = MPC@1 ≤ 5 μg/mL)” and the “MPM MPC8 AB1053 OXA-72” value (AB1053 OXA-72) was “X (X = MPC@1 ≤ 5 μg/mL)”. The “MPM MPC8 AB1054 OXA-23” value (AB1054 OXA-23) was “Y (Y = 5 μg/mL < MPC@1 ≤ 20 μg/mL)”, the Ki [2] was less than 0.1 µM and the “Ki (P99, NCF), uM” value [3] was “Y (key: X = Ki ≤ 0.1 μM; Y = 0.1 μM < Ki ≤ 1 μM; Z = Ki > 1 μM)”. The “Ki (CTX-M-14, NCF), uM” value [4] was “X (X = Ki ≤ 0.1 μM)”, the “Ki (OXA-48, NCF), uM” value [5] was “X (X = Ki ≤ 0.1 μM)” and the “Ki (KPC-2, NCF), uM” value [6] was “X (X = Ki ≤ 0.1 μM)”. The Ki [7] was 0.1 to 1 µM, the “AZT MPC4 ECL1002” value (ECL1002) was “Y (Y = 5 μg/mL < MPC@4 ≤ 20 μg/mL)” and the “AZT MPC4 SHV-5 ec308” value (ec308 SHV-5) was “Y (Y = 5 μg/mL < MPC@4 ≤ 20 μg/mL)”. The “AZT MPC4 TEM-10 ec302” value (ec302 TEM-10) was “Y (Y = 5 μg/mL < MPC@4 ≤ 20 μg/mL)”, the “AZT MPC4 KPC-2 KP1004” value (KP1004 KPC-2 [8]) was “X (X = MPC@4 ≤ 5 μg/mL)” and the “AZT MPC4 CMY-6 EC1010” value (EC1010 CMY-6) was “X (X = MPC@4 ≤ 5 μg/mL)”. For the same molecule, the “AZT MPC4 SHV-12 KP1010” value (KP1010 SHV-12) was “X (X = MPC@4 ≤ 5 μg/mL)”, the “AZT MPC4 CTX-M-15 KP1009” value (KP1009 CTX-M-15) was “Y (Y = 5 μg/mL < MPC@4 ≤ 20 μg/mL)” and the “TIG MPC4 CTX-M-14 KP1005” value (KP1005 CTX-M-14) was “Z (Z = MPC@4 > 20 μg/mL)”.
